From PubChem BioAssay (NCI) come the findings set out here.

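Values below derive from 48-hour exposures of cells grown in 96-well plates, with endpoints linearly interpolated between the two concentrations bracketing the appropriate inhibition level. At the TGI there is no net growth.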

Among the test systems are NCI-H522 lung; ACHN renal; DU-145 prostate; UACC-257 melanoma; UO-31 renal; SK-MEL-28 melanoma; HS 578T breast; MCF7 breast; HOP-62 NSCLC; IGROV1 ovarian; RPMI-8226 leukemia; PC-3 prostate; T-47D breast; MDA-MB-231 breast; LOX IMVI melanoma; EKVX NSCLC; UACC-62 melanoma; BT-549 breast.
What all share (assay): NCI tumour cell line growth inhibition, 48 h

For the compound `CCOC(=O)Cn1c(=O)c2nc(SC)sc2n(CC)c1=S`, the TGI in the experiment on NCI-H522 lung is more than 100 µM; in the experiment with ACHN renal, more than 100 µM; with DU-145 prostate, more than 100 µM; in the experiment with UACC-257 melanoma, more than 100 µM; in the experiment with UO-31 renal, 28.8 µM; in the experiment with SK-MEL-28 melanoma it was more than 100 µM. Besides, the TGI was 95.8 µM with HS 578T breast; more than 100 µM in the experiment on MCF7 breast; more than 100 µM in the experiment on HOP-62 NSCLC; more than 100 µM in the experiment with IGROV1 ovarian; more than 100 µM in the experiment with RPMI-8226 leukemia; more than 100 µM in the experiment with PC-3 prostate. The TGI with T-47D breast, with MDA-MB-231 breast and in the experiment on LOX IMVI melanoma was more than 100 µM throughout.

In the case of `CCOP(=O)(OCC)C(Nc1ccc(Br)cc1)c1cccc([N+](=O)[O-])c1` (stereo unspecified), the TGI was 28 µM in the experiment on NCI-H522 lung; 47.1 µM in the experiment with ACHN renal; more than 100 µM in the experiment on DU-145 prostate; 22.7 µM with UO-31 renal; 60 µM with SK-MEL-28 melanoma; 61.1 µM in the experiment with HS 578T breast. Besides, the TGI turned out to be 10.8 µM in the experiment on EKVX NSCLC; 39.8 µM in the experiment with HOP-62 NSCLC; 76.5 µM in the experiment with IGROV1 ovarian; 98.2 µM with RPMI-8226 leukemia; 37.1 µM with T-47D breast; 43.2 µM in the experiment on MDA-MB-231 breast. Moreover, the TGI was determined as 29.6 µM in the experiment on UACC-62 melanoma and 23.3 µM in the experiment with LOX IMVI melanoma.

On to `CCOP(=O)(OCC)C(C)(CC)N/C(=N/C(NC(C)=O)(C(F)(F)F)C(F)(F)F)NC1=NC(C(F)(F)F)(C(F)(F)F)N=C(C(F)(F)F)O1` (stereo unspecified), for which the TGI with NCI-H522 lung was 77.7 µM; in the experiment on ACHN renal, more than 100 µM; with DU-145 prostate it was more than 100 µM; in the experiment on UACC-257 melanoma, 94.8 µM; in the experiment with SK-MEL-28 melanoma it was more than 100 µM; in the experiment with HS 578T breast it was more than 100 µM. Besides, the TGI in the experiment on MCF7 breast was 68.8 µM; in the experiment with EKVX NSCLC it was more than 100 µM; in the experiment on HOP-62 NSCLC it was more than 100 µM; in the experiment on IGROV1 ovarian it was more than 100 µM; in the experiment on RPMI-8226 leukemia it was 73.7 µM; in the experiment on PC-3 prostate, 77.6 µM. Besides, the TGI was more than 100 µM in the experiment with T-47D breast, 48.7 µM in the experiment with MDA-MB-231 breast, more than 100 µM in the experiment on UACC-62 melanoma and more than 100 µM with LOX IMVI melanoma.

Turning to `Cc1cccc(N(C(=O)Nc2ccc(Cl)c(Cl)c2)C2=NCC(C)S2)c1` (stereo unspecified), the TGI in the experiment with ACHN renal, in the experiment with DU-145 prostate, in the experiment with UACC-257 melanoma, with UO-31 renal, with SK-MEL-28 melanoma and in the experiment on HS 578T breast was more than 100 µM in each case. The TGI with MCF7 breast was 58.8 µM; in the experiment with EKVX NSCLC, more than 100 µM; in the experiment on HOP-62 NSCLC it was more than 100 µM; in the experiment on IGROV1 ovarian, more than 100 µM; in the experiment with RPMI-8226 leukemia, more than 100 µM; in the experiment with PC-3 prostate, more than 100 µM. The TGI with T-47D breast was more than 100 µM; in the experiment with MDA-MB-231 breast it was more than 100 µM; in the experiment on LOX IMVI melanoma, 86.5 µM.

For `COc1cc2c(cc1OCCCCN1C(=O)c3cccc4cccc(c34)C1=O)N=C[C@@H]1CCCN1C2=O`, the TGI with NCI-H522 lung turned out to be 4.59 µM; in the experiment with ACHN renal, 5.2 µM; with DU-145 prostate, 14.3 µM; with UACC-257 melanoma it was 37.7 µM; with UO-31 renal, 3.4 µM; in the experiment on SK-MEL-28 melanoma, 38.2 µM. Also, the TGI in the experiment with BT-549 breast was determined as 28.7 µM; with MCF7 breast, 22.4 µM; with EKVX NSCLC it was 44.6 µM; in the experiment with HOP-62 NSCLC it was 33.6 µM; in the experiment with IGROV1 ovarian, 6.01 µM; with RPMI-8226 leukemia it was 27.4 µM. In addition, the TGI in the experiment on PC-3 prostate was more than 70.3 µM; in the experiment on T-47D breast it was 37.1 µM; in the experiment on MDA-MB-231 breast, 29.4 µM; in the experiment with UACC-62 melanoma, 39.9 µM; in the experiment on LOX IMVI melanoma, more than 100 µM.

`N#Cc1c(-c2ccc([N+](=O)[O-])cc2)c(C#N)c(=O)n(NS(=O)(=O)c2ccccc2)c1-c1ccccc1`: the TGI in the experiment on NCI-H522 lung, in the experiment on ACHN renal, in the experiment on UACC-257 melanoma, in the experiment with SK-MEL-28 melanoma, in the experiment with BT-549 breast and in the experiment with HS 578T breast was more than 100 µM in each case. For the same compound, the TGI with MCF7 breast, in the experiment on EKVX NSCLC, in the experiment on HOP-62 NSCLC, in the experiment with IGROV1 ovarian, in the experiment on RPMI-8226 leukemia and in the experiment with PC-3 prostate was more than 100 µM in each case. In addition, the TGI with MDA-MB-231 breast, in the experiment on UACC-62 melanoma and in the experiment with LOX IMVI melanoma was more than 100 µM throughout.

Regarding `Cc1ccc(N(C(=O)Nc2ccccc2)C2=NCC(C)S2)cc1C` (stereo unspecified), the TGI in the experiment with ACHN renal was more than 100 µM; in the experiment with DU-145 prostate it was more than 100 µM; in the experiment on UACC-257 melanoma, more than 10 µM; with UO-31 renal, 80.7 µM; in the experiment with SK-MEL-28 melanoma, 31.2 µM; in the experiment on HS 578T breast it was 77.4 µM. Further, the TGI was 71.9 µM in the experiment with MCF7 breast; 72.1 µM in the experiment with EKVX NSCLC; more than 100 µM in the experiment on HOP-62 NSCLC; 89.8 µM with IGROV1 ovarian; 49 µM in the experiment on RPMI-8226 leukemia; more than 100 µM in the experiment on PC-3 prostate. Besides, the figures for the TGI in the experiment with T-47D breast, with MDA-MB-231 breast and in the experiment with LOX IMVI melanoma were more than 100 µM, 45 µM and 30.3 µM, respectively.

For the compound `CN1CCN(c2ncc3c(n2)sc2c(=O)n(-c4ccccc4)cnc23)CC1`, the TGI with NCI-H522 lung, with ACHN renal, in the experiment with DU-145 prostate, with UACC-257 melanoma, with UO-31 renal and in the experiment with SK-MEL-28 melanoma was more than 100 µM each time. For the same compound, the TGI in the experiment with BT-549 breast, in the experiment with HS 578T breast, in the experiment on HOP-62 NSCLC, with IGROV1 ovarian, with RPMI-8226 leukemia and with PC-3 prostate was more than 100 µM in each case. Besides, the TGI with T-47D breast, in the experiment on MDA-MB-231 breast, in the experiment with UACC-62 melanoma and in the experiment with LOX IMVI melanoma was more than 100 µM each time.

For `CN(C)C(=S)/N=c1\ssc(=S)n1Cc1cccnc1`, the TGI is 9.61 µM in the experiment on NCI-H522 lung; more than 100 µM in the experiment with ACHN renal; more than 64.3 µM with DU-145 prostate; more than 95.5 µM with UACC-257 melanoma; more than 100 µM with UO-31 renal; more than 100 µM with SK-MEL-28 melanoma. The TGI in the experiment on HS 578T breast, with MCF7 breast, with EKVX NSCLC, in the experiment with HOP-62 NSCLC, in the experiment with IGROV1 ovarian and in the experiment on RPMI-8226 leukemia was more than 100 µM each time. Also, the TGI in the experiment with PC-3 prostate is more than 100 µM; in the experiment on T-47D breast, more than 100 µM; in the experiment with MDA-MB-231 breast it was more than 100 µM; in the experiment on UACC-62 melanoma, more than 67.7 µM; with LOX IMVI melanoma it was more than 100 µM.

For `Cc1ccc(NC2=CC(=O)C(NO)c3ccccc32)cc1` (stereo unspecified), the TGI was 12.5 µM in the experiment on ACHN renal; 7.41 µM in the experiment with DU-145 prostate; 3.84 µM with UACC-257 melanoma; 12.2 µM in the experiment on UO-31 renal; 29.5 µM in the experiment with SK-MEL-28 melanoma; 26.4 µM in the experiment with BT-549 breast. For the same compound, the TGI was found to be 10.8 µM in the experiment on MCF7 breast; 8.57 µM with EKVX NSCLC; 14.6 µM with HOP-62 NSCLC; 4.6 µM in the experiment with IGROV1 ovarian; 7.63 µM in the experiment on T-47D breast; 7.12 µM in the experiment on MDA-MB-231 breast. Further, the TGI in the experiment with UACC-62 melanoma is 4 µM; in the experiment with LOX IMVI melanoma it was 11.7 µM.

In the case of `Cn1c(O)c(C=Nc2ccccc2[N+](=O)[O-])c(=O)n(C)c1=O`, the TGI in the experiment on NCI-H522 lung, with ACHN renal, in the experiment with UACC-257 melanoma, in the experiment with UO-31 renal, with BT-549 breast and in the experiment on HS 578T breast was more than 100 µM each time. Besides, the TGI in the experiment on EKVX NSCLC, in the experiment with HOP-62 NSCLC, in the experiment with IGROV1 ovarian, in the experiment with RPMI-8226 leukemia, in the experiment on PC-3 prostate and in the experiment with T-47D breast was more than 100 µM throughout. The TGI in the experiment with MDA-MB-231 breast, in the experiment with UACC-62 melanoma and in the experiment on LOX IMVI melanoma was more than 100 µM throughout.

As to `COc1ccc(-n2cnc3c2NC(C)(C)N=C3C(N)=O)c(OC)c1`, the TGI in the experiment on NCI-H522 lung, with ACHN renal, in the experiment on DU-145 prostate, in the experiment with UACC-257 melanoma, with SK-MEL-28 melanoma and in the experiment with HS 578T breast was more than 100 µM throughout. For the same compound, the TGI in the experiment with MCF7 breast, in the experiment on EKVX NSCLC, with HOP-62 NSCLC, in the experiment on IGROV1 ovarian, in the experiment with RPMI-8226 leukemia and in the experiment on PC-3 prostate was more than 100 µM each time. For the same compound, the TGI with T-47D breast, in the experiment with MDA-MB-231 breast, with UACC-62 melanoma and in the experiment on LOX IMVI melanoma was more than 100 µM throughout.

Take `COc1cc(CO)c(CC(=O)NCCCc2ccccc2)cc1OC`: the TGI with ACHN renal, in the experiment on DU-145 prostate, in the experiment on UACC-257 melanoma, in the experiment with UO-31 renal, with SK-MEL-28 melanoma and with BT-549 breast was more than 100 µM in each case. Also, the TGI in the experiment on HS 578T breast, with EKVX NSCLC, in the experiment on HOP-62 NSCLC, in the experiment with IGROV1 ovarian, with PC-3 prostate and in the experiment on T-47D breast was more than 100 µM throughout. The TGI with MDA-MB-231 breast, in the experiment with UACC-62 melanoma and in the experiment on LOX IMVI melanoma was more than 100 µM in each case.

In the case of `CN(C)CCCNc1ccc([N+](=O)[O-])c2nc3ccccc3c(N)c12`, the TGI in the experiment on ACHN renal is 1.61 µM; with DU-145 prostate, 1.75 µM; in the experiment with UACC-257 melanoma, more than 10 µM; in the experiment on UO-31 renal, 2.97 µM; in the experiment on SK-MEL-28 melanoma, more than 10 µM; with BT-549 breast, 4.75 µM. In addition, the TGI with HS 578T breast is more than 10 µM; in the experiment with MCF7 breast, more than 10 µM; in the experiment with EKVX NSCLC, 2.35 µM; in the experiment on HOP-62 NSCLC, more than 10 µM; with IGROV1 ovarian it was 6.47 µM; in the experiment on RPMI-8226 leukemia it was 2.14 µM. The TGI in the experiment on PC-3 prostate was 1.69 µM; with MDA-MB-231 breast it was 2.53 µM; with UACC-62 melanoma, more than 10 µM; in the experiment with LOX IMVI melanoma, 1.63 µM.
